This note sets out measurements from ChEMBL document CHEMBL3808352, “Pyrazolylamine Derivatives Reveal the Conformational Switching between Type I and Type II Binding Modes of Anaplastic Lymphoma Kinase (ALK)” (J Med Chem, 2016).

Molecules are shown by their SMILES.

The nature of this data set: Lipophilicity, log P of the compound. The note with it: octanol/water. It is filed as physicochemical.

In general, logP refers to the decadic logarithm of the partition coefficient of the neutral form, usually between octanol and water.

With `Cc1cc(-c2cc(NC(=O)c3ccc(CN4CCN(C)CC4)cc3)[nH]n2)ccc1N`, the logP stood at 2.61. For `Cc1cc(-c2cc(NC(=O)c3ccc(CN4CCN(C)CC4)cc3)[nH]n2)ccc1NC(=O)Nc1cc(C(C)(C)C)on1`, the logP was 4.54.
